Laboratory results: patent US20200405697A1, “Antitumor Agent” (Taiho Pharmaceutical Co., Ltd, priority 2017, published 2020)
pIC50: −log10 of the molar value.

target: T1, human RNR (histidine tagged human M1 and human M2 proteins) (Homo sapiens, UniProt P23921); test: Human RNR inhibition effect (dCDP formation from CDP); assay type: biochemical; details: 10 μM CDP, 37° C. for 30 minutes, read-out: RNR inhibitory activity IC50
T1 construct: made in house; host or cells: Escherichia coli
T1 sequence (P23921 1-792): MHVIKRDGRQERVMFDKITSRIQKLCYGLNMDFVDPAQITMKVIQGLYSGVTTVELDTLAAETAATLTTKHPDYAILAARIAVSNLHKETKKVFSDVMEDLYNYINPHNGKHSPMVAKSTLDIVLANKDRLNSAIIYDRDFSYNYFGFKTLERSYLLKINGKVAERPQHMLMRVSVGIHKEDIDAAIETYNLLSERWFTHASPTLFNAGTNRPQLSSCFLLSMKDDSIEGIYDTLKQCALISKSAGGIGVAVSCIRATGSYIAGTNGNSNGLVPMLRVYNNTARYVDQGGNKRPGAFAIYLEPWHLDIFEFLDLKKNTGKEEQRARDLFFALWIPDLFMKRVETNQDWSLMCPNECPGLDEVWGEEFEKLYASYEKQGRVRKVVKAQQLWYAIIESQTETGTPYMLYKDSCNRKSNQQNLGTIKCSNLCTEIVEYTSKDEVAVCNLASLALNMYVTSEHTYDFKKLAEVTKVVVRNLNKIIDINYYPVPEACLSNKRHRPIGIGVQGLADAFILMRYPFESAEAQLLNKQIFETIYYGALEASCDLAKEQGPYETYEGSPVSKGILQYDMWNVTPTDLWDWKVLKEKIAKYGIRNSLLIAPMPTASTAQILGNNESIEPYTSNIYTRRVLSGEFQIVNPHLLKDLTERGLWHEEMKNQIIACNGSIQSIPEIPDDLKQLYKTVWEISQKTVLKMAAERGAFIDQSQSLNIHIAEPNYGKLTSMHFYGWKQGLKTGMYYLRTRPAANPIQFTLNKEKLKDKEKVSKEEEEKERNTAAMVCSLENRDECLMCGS
How it was run: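 His-tagged human M1 (isoform 1) and N-terminal 59-aa-truncated M2 (isoform 2), E. coli-expressed, Ni-purified, preincubated 20 min with compound (1% DMSO). Reaction with 10 μM CDP, 2 mM ATP, 0.24 mM NADPH, 6 mM DTT, 4 mM Mg acetate, 100 mM KCl, 50 mM HEPES pH 7.2, 30 min at 37° C. dCDP formed quantified by reverse-phase HPLC after heat stop.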

Row | Compound | pIC50
1 | Cc1c(Cl)ccc(F)c1[C@@H](C)[C@H](NS(=O)(=O)c1ccc(Cl)c2c1OCCC2(C)N)c1n[nH]c(=O)o1 (single isomer, unassigned) [Example 330A] | 6.92
2 | COc1cc(Cl)cnc1S(=O)(=O)N[C@H](c1n[nH]c(=O)o1)[C@H](C)c1c(F)ccc(C)c1C [Example 112, 5-chloro-N-((1S,2R)-2-(6-fluoro-2,3-dimethylphenyl)-1-(5-oxo-4,5-dihydro-1,3,4-oxadiazol-2-yl)propyl)-3-methoxypyridine-2-sulfonamide] | 6.82
3 | Cc1ccc(F)c([C@@H](C)[C@H](NS(=O)(=O)c2ncc(Br)cc2C(N)=O)c2n[nH]c(=O)o2)c1C [Example 250, 5-bromo-2-(N-((1S,2R)-2-(6-fluoro-2,3-dimethylphenyl)-1-(5-oxo-4,5-dihydro-1,3,4-oxadiazol-2-yl)propyl)sulfamoyl)nicotinamide] | 7.70
4 | Cc1ccc(F)c([C@@H](C)[C@H](NS(=O)(=O)c2ccc(Cl)c(C(=O)N3CCOCC3)n2)c2n[nH]c(=O)o2)c1C [Example 113, 5-chloro-N-((1S,2R)-2-(6-fluoro-2,3-dimethylphenyl)-1-(5-oxo-4,5-dihydro-1,3,4-oxadiazol-2-yl)propyl)-6-(moipholine4-carbonyl)pyridine-2-sulfonamide] | 7.22
5 | COC(=O)c1cc(Cl)ccc1S(=O)(=O)N[C@H](c1n[nH]c(=O)o1)[C@H](C)c1c(F)ccc(C)c1C [Example 103, methyl 5-chloro-2-(N-((1S,2R)-2-(6-fluoro-2,3-dimethylphenyl)-1-(5-oxo-4,5-dihydro-1,3,4-oxadiazol-2-yl)propyl)sulfamoyl)benzoate] | 6.39
6 | CC(O)c1c(Cl)ccc(S(=O)(=O)N[C@H](c2n[nH]c(=O)o2)[C@H](C)c2cccc3c2CCC3)c1Cl (stereo partly drawn) [Example 201, 2,4-dichloro-N-((1S,2R)-2-(2,3-dihydro-1H-inden-4-yl)-1-(5-oxo-4,5-dihydro-1,3,4-oxadiazol-2-yl)propyl)-3-(1-hydroxyethyl)benzenesulfonamide] | 6.77
7 | Cc1ccc(F)c([C@@H](C)[C@H](NS(=O)(=O)c2ccc(Cl)c3c2C(=O)CCC3)c2n[nH]c(=O)o2)c1C [Example 107, 4-chloro-N-((1S,2R)-2-(6-fluoro-2,3-diinethylphenyl)-1-(5-oxo-4,5-dihydro-1,3,4-oxadiazol-2-yl)propyl)-8-oxo-5,6,7,8-tetrahydronaphthalene-1-sulfonamide] | 6.62
8 | COc1cc(C(N)=O)c(S(=O)(=O)N[C@H](c2n[nH]c(=O)o2)[C@H](C)c2c(F)ccc(C)c2C)cc1OC [Example 260, 2-(N-((1S,2R)-2-(6-fluoro-2,3-dimethylphenyl)-1-(5-oxo-4,5-dihydro-1,3,4-oxadiazol-2-yl)propyl)sulfamoyl)-4,5-dimethoxybenzamide] | 6.44
9 | Cc1ccc(F)c([C@@H](C)[C@H](NS(=O)(=O)c2ccc3c(c2)C(=O)CCC3)c2n[nH]c(=O)o2)c1C [Example 174, N-((1S,2R)-2-(6-fluoro-2,3-dimethylphenyl)-1-(5-oxo-4,5-dihydro-1,3,4-oxadiazol-2-yl)propyl)-8-oxo-5,6,7,8-tetrahydronaphthalene-2-sulfonamide] | 6.46
10 | Cc1ccc(F)c([C@@H](C)[C@H](NS(=O)(=O)c2ccc3[nH]ncc3c2)c2n[nH]c(=O)o2)c1C [Example 182, N-((1S,2R)-2-(6-fluoro-2,3-dimethylphenyl)-1-(5-oxo-4,5-dihydro-1,3,4-oxadiazol-2-yl)propyl)-1H-indazole-5-sulfonamide] | 6.39
11 | Cc1c(Br)ccc(F)c1[C@@H](C)[C@H](NS(=O)(=O)c1ccc(Cl)c2c1OCCC2O)c1n[nH]c(=O)o1 (single isomer, unassigned) [Example 243A] | 7.15
12 | Cc1ccc(F)c([C@@H](C)[C@H](NS(=O)(=O)c2ccc3c(c2)C(=O)CCO3)c2n[nH]c(=O)o2)c1C [Example 179, N-((1S,2R)-2-(6-fluoro-2,3-dimethylphenyl)-1-(5-oxo-4,5-dihydro-1,3,4-oxadiazol-2-yl)propyl)-4-oxochroman-6-sulfonamide] | 6.55
13 | Cc1ccc(S(=O)(=O)N[C@H](c2n[nH]c(=O)o2)[C@H](C)c2c(F)ccc(C)c2C)cc1S(=O)(=O)N1CCCCC1 [Example 171, N-((1S,2R)-2-(6-fluoro-2,3-dimethylphenyl)-1-(5-oxo-4,5-dihydro-1,3,4-oxadiazol-2-yl)propyl)-4-methyl-3-(piperidin-1-ylsulfonyl)benzenesulfonamide] | 6.33
14 | Cc1ccc(F)c([C@@H](C)[C@H](NS(=O)(=O)c2ccc(Cl)c3cccnc23)c2n[nH]c(=O)o2)c1C [Example 153, 5-chloro-N-((1S,2R)-2-(6-fluoro-2,3-dimethylphenyl)-1-(5-oxo-4,5-dihydro-1,3,4-oxadiazol-2-yl)propyl)quinoline-8-sulfonamide] | 6.96
15 | Cc1ccc(F)c([C@@H](C)[C@H](NS(=O)(=O)c2c(Cl)cc(Cl)cc2C(N)=O)c2n[nH]c(=O)o2)c1C [Example 256, 3,5-dichloro-2-(N-((1S,2R)-2-(6-fluoro-2,3-dimethylphenyl)-1-(5-oxo-4,5-dihydro-1,3,4-oxadiazol-2-yl)propyl)sulfamoyl)benzamide] | 6.38
16 | Cc1ccc(S(=O)(=O)N[C@H](c2n[nH]c(=O)o2)[C@H](C)c2c(F)ccc(C)c2C)cc1 [Example 151, N-((1S,2R)-2-(6-fluoro-2,3-dimethylphenyl)-1-(5-oxo-4,5-dihydro-1,3,4-oxadiazol-2-yl)propyl)-4-methylbenzenesulfonamide] | 6.39
17 | COc1c(S(=O)(=O)N[C@H](c2n[nH]c(=O)o2)[C@H](C)c2c(F)ccc3ccccc23)ccc(Cl)c1C(C)O (stereo partly drawn) [Example 205, 4-chloro-N-((1S,2R)-2-(2-fluoronaphthalene-1-yl)-1-(5-oxo-4,5-dihydro-1,3,4-oxadiazol-2-yl)propyl)-3-(1-hydroxyethyl)-2-methoxybenzenesulfonamide] | 7.10
18 | COc1cc(Cl)ccc1S(=O)(=O)N[C@H](c1n[nH]c(=O)o1)[C@H](C)c1c(F)ccc(-c2ccc(N3CCCCC3)nc2)c1C [Example 320, 4-chloro-N-((1S,2R)-2-(6-fluoro-2-methyl-3-(6-(piperidin-1-yl)pyridin-3-yl)phenyl)-1-(5-oxo-4,5-dihydro-1,3,4-oxadiazol-2-yl)propyl)-2-methoxybenzenesulfonamide] | 6.22
19 | Cc1ccc(F)c([C@@H](C)[C@H](NS(=O)(=O)c2ccc(Cl)c(-c3cnn(C)c3)c2)c2n[nH]c(=O)o2)c1C [Example 325, 4-chloro-N-((1S,2R)-2-(6-fluoro-2,3-dimethylphenyl)-1-(5-oxo-4,5-dihydro-1,3,4-oxadiazol-2-yl)propyl)-3-(1-methyl-1H-pyrazol-4-yl)benzenesulfonamide] | 6.66
20 | CC(=O)OC1(C(F)(F)F)CCOc2c1cccc2S(=O)(=O)N[C@H](c1n[nH]c(=O)o1)[C@H](C)c1c(F)ccc(C)c1C (stereo partly drawn) [Example 106, 8-(N-((1S,2R)-2-(6-fluoro-2,3-dimethylphenyl)-1-(5-oxo-4,5-dihydro-1,3,4-oxadiazol-2-yl)propyl)sulfamoyl)-4-(tifluoromethyl)chroman-4-ylacetate] | 6.57
21 | C[C@H](c1cccc2c1CCCC2)[C@H](NS(=O)(=O)c1ccc(Cl)cn1)c1n[nH]c(=O)o1 [Example 52] | 6.11
22 | Cc1ccc(F)c([C@@H](C)[C@H](NS(=O)(=O)c2ccc(Cl)c3c2OCCC3(O)C(F)(F)F)c2n[nH]c(=O)o2)c1C (single isomer, unassigned) [Example 220B] | 7.10
23 | Cc1ccc(F)c([C@@H](C)[C@H](NS(=O)(=O)c2ccc(Cl)c(C(C)(C)O)n2)c2n[nH]c(=O)o2)c1C [Example 193, 5-chloro-N-((1S,2R)-2-(6-fluoro-2,3-dimethylphenyl)-1-(5-oxo-4,5-dihydro-1,3,4-oxadiazol-2-yl)propyl)-6-(2-hydroxypropan-2-yl)pyridine-2-sulfonamide] | 7.05
24 | [2H]C([2H])([2H])[C@H](c1c(F)ccc(C)c1C)[C@H](NS(=O)(=O)c1ccc(Cl)cc1C(N)=O)c1n[nH]c(=O)o1 [Example 43, 5-chloro-2-[[(1S,2R)-3,3,3-trideuterio-2-(6-fluoro-2,3-dimethylphenyl)-1-(2-oxo-3H-1,3,4-oxadiazol-5-yl)propyl]sulfamoyl]benzamide] | 7.10
25 | COc1c(S(=O)(=O)N[C@H](c2n[nH]c(=O)o2)[C@H](C)c2c(F)ccc(C)c2C)ccc(Cl)c1C(C)OC(C)=O (stereo partly drawn) [Example 144, 1-(6-chloro-3-(N-((1S,2R)-2-(6-fluoro-2,3-dimethylphenyl)-1-(5-oxo-4,5-dihydro-1,3,4-oxadiazol-2-yl)propyl)sulfamoyl)-2-methoxyphenyl)ethyl acetate] | 6.77
